Consider one compound from ChEMBL document CHEMBL4304811, “Development of a Water-Soluble Indolylmaleimide Derivative IM-93 Showing Dual Inhibition of Ferroptosis and NETosis” (ACS Med Chem Lett, 2019).

Assay [1] concerns the target Death-associated protein kinase 3 (Homo sapiens) (UniProt O43293). Nature of the assay: Binding affinity to wild-type human partial length DAPK3 (M1 to A277 residues) expressed in bacterial expression system assessed as residual binding level at 10 uM by Kinomescan method relative to control.
The target of assay [2] is NUAK family SNF1-like kinase 1 (Homo sapiens) (UniProt O60285). Nature of the assay: Binding affinity to wild-type human partial length ARK5 (E25 to I332 residues) expressed in bacterial expression system assessed as residual binding level at 10 uM by Kinomescan method relative to control.
The target in assay [3] is Tyrosine-protein kinase Lck (Homo sapiens) (UniProt P06239). The assay is described as follows: Binding affinity to wild-type human partial length LCK (R207 to P509 residues) expressed in bacterial expression system assessed as residual binding level at 10 uM by Kinomescan method relative to control.
Sequence of Tyrosine-protein kinase Lck (Homo sapiens) (P06239 2-509 limits assumed): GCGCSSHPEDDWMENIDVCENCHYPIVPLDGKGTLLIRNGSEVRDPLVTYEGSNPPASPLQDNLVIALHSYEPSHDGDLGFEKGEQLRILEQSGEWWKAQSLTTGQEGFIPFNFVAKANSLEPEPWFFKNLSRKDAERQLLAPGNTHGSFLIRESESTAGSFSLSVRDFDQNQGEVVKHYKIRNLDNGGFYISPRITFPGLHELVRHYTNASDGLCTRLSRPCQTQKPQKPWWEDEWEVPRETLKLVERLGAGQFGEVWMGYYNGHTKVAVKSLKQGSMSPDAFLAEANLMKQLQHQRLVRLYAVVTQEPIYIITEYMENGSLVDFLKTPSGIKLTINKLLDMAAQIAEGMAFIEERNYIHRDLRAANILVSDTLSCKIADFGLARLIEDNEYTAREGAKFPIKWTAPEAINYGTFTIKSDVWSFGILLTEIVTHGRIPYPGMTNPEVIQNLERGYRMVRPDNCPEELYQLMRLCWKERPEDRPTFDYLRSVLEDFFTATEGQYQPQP
The target of assay [4] is Myosin light chain kinase, smooth muscle (Homo sapiens) (UniProt Q15746). The assay is described as follows: Binding affinity to wild-type human full length MYLK (M854 to E1845 residues) expressed in mammalian expression system assessed as residual binding level at 10 uM by Kinomescan method relative to control.
In assay [5] the target is Serine/threonine-protein kinase SBK1 (Homo sapiens) (UniProt Q52WX2). The assay is described as follows: Binding affinity to wild-type human partial length SBK1 (P23 to P348 residues) expressed in mammalian expression system assessed as residual binding level at 10 uM by Kinomescan method relative to control.
Sequence of Serine/threonine-protein kinase SBK1 (Homo sapiens) (Q52WX2 whole entry, the tested form may be a part): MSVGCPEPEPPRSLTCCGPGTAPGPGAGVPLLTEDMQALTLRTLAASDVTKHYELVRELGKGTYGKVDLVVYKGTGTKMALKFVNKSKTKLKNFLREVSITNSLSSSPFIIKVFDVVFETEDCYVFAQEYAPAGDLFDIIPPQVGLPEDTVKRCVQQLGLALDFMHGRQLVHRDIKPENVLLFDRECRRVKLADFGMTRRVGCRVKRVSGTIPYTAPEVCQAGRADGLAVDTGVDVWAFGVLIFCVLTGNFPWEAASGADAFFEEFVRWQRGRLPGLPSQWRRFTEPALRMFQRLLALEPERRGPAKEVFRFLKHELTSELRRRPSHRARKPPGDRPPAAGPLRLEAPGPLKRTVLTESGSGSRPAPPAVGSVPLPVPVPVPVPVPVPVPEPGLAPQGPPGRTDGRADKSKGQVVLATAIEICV
For assay [6], the system named is Tyrosine-protein kinase ABL1 (Homo sapiens), P00519 [Y253F]. The assay is described as follows: Binding affinity to human phosphorylated ABL1 Y253F mutant (S229 to K512 residues) expressed in mammalian expression system assessed as residual binding level at 10 uM by Kinomescan method relative to control.
For assay [7], the target named is Aurora kinase B (Homo sapiens) (UniProt Q96GD4). The assay is described as follows: Binding affinity to wild-type human partial length AURKB (D25 to A303 residues) expressed in mammalian expression system assessed as residual binding level at 10 uM by Kinomescan method relative to control.
Assay [8] concerns Phosphatidylinositol 4,5-bisphosphate 3-kinase catalytic subunit alpha isoform (Homo sapiens), P42336 [E545K]. Nature of the assay: Binding affinity to human partial length PIK3CA E545K mutant (R108 to N1068 residues) expressed in mammalian expression system assessed as residual binding level at 10 uM by Kinomescan method relative to control.
Sequence of Phosphatidylinositol 4,5-bisphosphate 3-kinase catalytic subunit alpha isoform (Homo sapiens), P42336 [E545K] (P42336 whole entry E545K, the tested form may be a part, canonical isoform): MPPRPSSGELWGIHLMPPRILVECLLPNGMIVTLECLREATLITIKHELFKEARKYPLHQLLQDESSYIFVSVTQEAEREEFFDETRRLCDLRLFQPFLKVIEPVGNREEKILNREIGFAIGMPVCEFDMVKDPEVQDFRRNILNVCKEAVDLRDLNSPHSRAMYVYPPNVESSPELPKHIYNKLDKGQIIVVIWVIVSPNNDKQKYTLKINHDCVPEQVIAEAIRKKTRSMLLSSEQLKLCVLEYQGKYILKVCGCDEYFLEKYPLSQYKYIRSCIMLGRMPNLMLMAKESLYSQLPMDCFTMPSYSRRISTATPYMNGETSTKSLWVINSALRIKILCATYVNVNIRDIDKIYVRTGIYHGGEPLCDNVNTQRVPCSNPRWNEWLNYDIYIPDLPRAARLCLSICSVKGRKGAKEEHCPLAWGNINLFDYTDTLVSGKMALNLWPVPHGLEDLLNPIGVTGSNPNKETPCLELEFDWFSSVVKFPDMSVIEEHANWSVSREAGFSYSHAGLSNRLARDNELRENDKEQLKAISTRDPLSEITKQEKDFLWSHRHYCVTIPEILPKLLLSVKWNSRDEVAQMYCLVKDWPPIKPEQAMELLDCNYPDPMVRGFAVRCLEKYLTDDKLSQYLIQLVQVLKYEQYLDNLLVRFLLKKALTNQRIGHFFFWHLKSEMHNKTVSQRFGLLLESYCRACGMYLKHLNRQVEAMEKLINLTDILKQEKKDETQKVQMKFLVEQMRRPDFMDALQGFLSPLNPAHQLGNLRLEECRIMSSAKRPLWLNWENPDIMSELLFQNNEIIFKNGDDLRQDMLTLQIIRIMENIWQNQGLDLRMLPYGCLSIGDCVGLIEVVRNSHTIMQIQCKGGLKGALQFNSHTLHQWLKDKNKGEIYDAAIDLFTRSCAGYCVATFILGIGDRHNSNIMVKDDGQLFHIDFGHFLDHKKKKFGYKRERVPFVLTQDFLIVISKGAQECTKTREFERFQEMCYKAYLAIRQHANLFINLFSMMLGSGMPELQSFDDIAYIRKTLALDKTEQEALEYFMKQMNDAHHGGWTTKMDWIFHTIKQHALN
Assay [9] concerns the target Calcium/calmodulin-dependent protein kinase type 1D (Homo sapiens) (UniProt Q8IU85). The assay is described as follows: Binding affinity to wild-type human partial length CAMK1D (M1 to K299 residues) expressed in bacterial expression system assessed as residual binding level at 10 uM by Kinomescan method relative to control.
Assay [10] addresses Tyrosine-protein kinase Srms (Homo sapiens) (UniProt Q9H3Y6). Nature of the assay: Binding affinity to wild-type human partial length SRMS (L208 to P488 residues) expressed in mammalian expression system assessed as residual binding level at 10 uM by Kinomescan method relative to control.
Assay [11] concerns the target Mitogen-activated protein kinase 10 (Homo sapiens) (UniProt P53779). The assay is described as follows: Binding affinity to wild-type human partial length JNK3 (V28 to Q422 residues) expressed in mammalian expression system assessed as residual binding level at 10 uM by Kinomescan method relative to control.
The target in assay [12] is Ephrin type-A receptor 1 (Homo sapiens) (UniProt P21709). The assay is described as follows: Binding affinity to wild-type human partial length EPHA1 (V588 to I913 residues) expressed in bacterial expression system assessed as residual binding level at 10 uM by Kinomescan method relative to control.
The target of assay [13] is Phosphorylase b kinase gamma catalytic chain, liver/testis isoform (Homo sapiens) (UniProt P15735). Nature of the assay: Binding affinity to wild-type human partial length PHKG2 (M1 to W300 residues) expressed in bacterial expression system assessed as residual binding level at 10 uM by Kinomescan method relative to control.
The target of assay [14] is Serine/threonine-protein kinase 25 (Homo sapiens) (UniProt O00506). The assay is described as follows: Binding affinity to wild-type human partial length YSK1 (V14 to H295 residues) expressed in bacterial expression system assessed as residual binding level at 10 uM by Kinomescan method relative to control.
Sequence of Serine/threonine-protein kinase 25 (Homo sapiens) (O00506 whole entry, looked up, the tested form may be a part): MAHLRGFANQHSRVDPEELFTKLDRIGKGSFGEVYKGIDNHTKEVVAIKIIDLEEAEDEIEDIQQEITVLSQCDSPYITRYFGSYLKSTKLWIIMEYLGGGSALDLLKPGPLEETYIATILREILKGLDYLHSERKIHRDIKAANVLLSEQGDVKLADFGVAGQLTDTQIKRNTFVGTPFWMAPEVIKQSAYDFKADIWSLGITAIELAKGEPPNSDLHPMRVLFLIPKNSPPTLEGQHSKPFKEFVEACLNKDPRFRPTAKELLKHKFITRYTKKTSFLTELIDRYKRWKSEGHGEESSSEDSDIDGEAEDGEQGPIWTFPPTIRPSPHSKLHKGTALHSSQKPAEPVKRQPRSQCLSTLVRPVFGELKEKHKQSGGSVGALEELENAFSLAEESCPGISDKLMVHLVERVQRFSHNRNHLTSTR
Assay [15] has as its system Receptor-type tyrosine-protein kinase FLT3 (Homo sapiens), P36888 [D835H]. Nature of the assay: Binding affinity to human partial length FLT3 D835H mutant (V592 to Y969 residues) expressed in bacterial expression system assessed as residual binding level at 10 uM by Kinomescan method relative to control.
The target in assay [16] is Homeodomain-interacting protein kinase 3 (Homo sapiens) (UniProt Q9H422). Nature of the assay: Binding affinity to wild-type human partial length HIPK3 (M153 to N562 residues) expressed in mammalian expression system assessed as residual binding level at 10 uM by Kinomescan method relative to control.
Assay [17] concerns the target Serine/threonine-protein kinase MRCK beta (Homo sapiens) (UniProt Q9Y5S2). The assay is described as follows: Binding affinity to wild-type human partial length MRCKB (L56 to S417 residues) expressed in bacterial expression system assessed as residual binding level at 10 uM by Kinomescan method relative to control.
Assay [18] deals with Mast/stem cell growth factor receptor Kit (Homo sapiens), P10721 [D816H]. The assay is described as follows: Binding affinity to human partial length KIT D816H mutant (I571 to D952 residues) expressed in mammalian expression system assessed as residual binding level at 10 uM by Kinomescan method relative to control.
In assay [19] the target is Mitogen-activated protein kinase kinase kinase 10 (Homo sapiens) (UniProt Q02779). Nature of the assay: Binding affinity to wild-type human partial length MLK2 (V52 to W380 residues) expressed in bacterial expression system assessed as residual binding level at 10 uM by Kinomescan method relative to control.
Sequence of Mitogen-activated protein kinase kinase kinase 10 (Homo sapiens) (Q02779 whole entry, looked up, the tested form may be a part): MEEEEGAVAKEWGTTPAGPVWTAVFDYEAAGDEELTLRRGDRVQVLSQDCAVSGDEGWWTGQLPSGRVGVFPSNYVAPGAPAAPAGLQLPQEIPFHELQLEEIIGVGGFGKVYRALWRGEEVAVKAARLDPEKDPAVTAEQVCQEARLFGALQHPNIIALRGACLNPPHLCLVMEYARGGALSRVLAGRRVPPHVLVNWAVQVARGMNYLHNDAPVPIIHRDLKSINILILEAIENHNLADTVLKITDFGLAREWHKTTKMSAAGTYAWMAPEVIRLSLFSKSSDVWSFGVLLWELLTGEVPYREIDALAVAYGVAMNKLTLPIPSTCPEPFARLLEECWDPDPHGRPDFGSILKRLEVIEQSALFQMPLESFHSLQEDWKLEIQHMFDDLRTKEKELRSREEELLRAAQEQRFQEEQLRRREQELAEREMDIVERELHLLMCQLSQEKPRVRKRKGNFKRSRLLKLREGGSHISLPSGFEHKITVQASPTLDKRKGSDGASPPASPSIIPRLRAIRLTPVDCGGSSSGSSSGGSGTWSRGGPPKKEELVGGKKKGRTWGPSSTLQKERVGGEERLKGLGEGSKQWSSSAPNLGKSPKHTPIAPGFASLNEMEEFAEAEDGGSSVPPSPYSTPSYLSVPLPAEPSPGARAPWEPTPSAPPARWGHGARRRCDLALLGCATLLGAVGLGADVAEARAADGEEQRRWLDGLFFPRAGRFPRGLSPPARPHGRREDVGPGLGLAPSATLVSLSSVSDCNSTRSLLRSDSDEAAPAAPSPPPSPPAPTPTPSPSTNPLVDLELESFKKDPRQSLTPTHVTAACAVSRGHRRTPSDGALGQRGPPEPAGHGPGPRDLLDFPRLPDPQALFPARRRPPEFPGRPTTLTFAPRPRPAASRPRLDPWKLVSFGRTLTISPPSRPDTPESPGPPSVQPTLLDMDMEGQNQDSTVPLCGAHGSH
The target of assay [20] is Misshapen-like kinase 1 (Homo sapiens) (UniProt Q8N4C8). Nature of the assay: Binding affinity to wild-type human partial length MINK (M1 to K312 residues) expressed in mammalian expression system assessed as residual binding level at 10 uM by Kinomescan method relative to control.
Assay [21] addresses Mitogen-activated protein kinase 8 (Homo sapiens) (UniProt P45983). The assay is described as follows: Binding affinity to wild-type human full length JNK1 (M1 to Q384 residues) expressed in mammalian expression system assessed as residual binding level at 10 uM by Kinomescan method relative to control.
Assay [22] addresses Receptor-type tyrosine-protein kinase FLT3 (Homo sapiens) (UniProt P36888). The assay is described as follows: Binding affinity to wild-type human partial length autoinhibited FLT3 (H564 to Y969 residues) expressed in mammalian expression system assessed as residual binding level at 10 uM by Kinomescan method relative to control.
In assay [23] the test system is Tyrosine-protein kinase ABL1 (Homo sapiens), P00519 [M351T]. Nature of the assay: Binding affinity to human phosphorylated ABL1 M351T mutant (S229 to K512 residues) expressed in mammalian expression system assessed as residual binding level at 10 uM by Kinomescan method relative to control.
Assay [24] concerns the target Dual specificity mitogen-activated protein kinase kinase 6 (Homo sapiens) (UniProt P52564). Nature of the assay: Binding affinity to wild-type human partial length MEK6 (K36 to D334 residues) expressed in bacterial expression system assessed as residual binding level at 10 uM by Kinomescan method relative to control.

The structures appear in SMILES notation.

Sequence of Calcium/calmodulin-dependent protein kinase type 1D (Homo sapiens) (Q8IU85 whole entry, looked up, the tested form may be a part): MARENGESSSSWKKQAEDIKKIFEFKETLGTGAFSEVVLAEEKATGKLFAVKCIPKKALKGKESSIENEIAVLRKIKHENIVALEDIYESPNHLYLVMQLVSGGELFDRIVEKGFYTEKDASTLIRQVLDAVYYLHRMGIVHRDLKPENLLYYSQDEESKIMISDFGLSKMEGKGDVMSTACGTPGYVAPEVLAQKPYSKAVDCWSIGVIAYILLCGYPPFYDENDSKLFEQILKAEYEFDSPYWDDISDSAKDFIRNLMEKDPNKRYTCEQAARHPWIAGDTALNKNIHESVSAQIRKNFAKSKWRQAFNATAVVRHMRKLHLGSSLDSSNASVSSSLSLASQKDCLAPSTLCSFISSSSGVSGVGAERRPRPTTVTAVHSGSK
Sequence of Dual specificity mitogen-activated protein kinase kinase 6 (Homo sapiens) (P52564 whole entry, the tested form may be a part): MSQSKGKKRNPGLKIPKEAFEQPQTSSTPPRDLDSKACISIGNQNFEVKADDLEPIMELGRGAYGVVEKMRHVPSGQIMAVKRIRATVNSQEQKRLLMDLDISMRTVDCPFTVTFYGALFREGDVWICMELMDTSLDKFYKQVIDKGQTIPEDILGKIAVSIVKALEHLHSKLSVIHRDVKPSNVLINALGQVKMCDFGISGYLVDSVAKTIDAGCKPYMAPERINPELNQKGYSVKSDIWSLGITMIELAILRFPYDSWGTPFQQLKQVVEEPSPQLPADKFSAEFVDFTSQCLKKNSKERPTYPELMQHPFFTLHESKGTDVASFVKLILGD
Sequence of Death-associated protein kinase 3 (Homo sapiens) (O43293 whole entry, looked up, the tested form may be a part): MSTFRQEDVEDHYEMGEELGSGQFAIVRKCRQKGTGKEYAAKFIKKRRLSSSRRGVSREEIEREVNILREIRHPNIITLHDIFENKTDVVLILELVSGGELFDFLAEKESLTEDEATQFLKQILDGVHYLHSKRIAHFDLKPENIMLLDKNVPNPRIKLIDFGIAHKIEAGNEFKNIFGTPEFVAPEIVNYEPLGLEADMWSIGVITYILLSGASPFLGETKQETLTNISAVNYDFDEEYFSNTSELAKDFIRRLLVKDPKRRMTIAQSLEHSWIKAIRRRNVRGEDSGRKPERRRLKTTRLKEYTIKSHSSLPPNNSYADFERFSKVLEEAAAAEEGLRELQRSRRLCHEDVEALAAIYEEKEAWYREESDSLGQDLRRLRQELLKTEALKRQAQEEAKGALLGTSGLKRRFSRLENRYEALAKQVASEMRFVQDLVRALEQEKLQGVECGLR
Sequence of Mitogen-activated protein kinase 10 (Homo sapiens) (P53779 whole entry, the tested form may be a part): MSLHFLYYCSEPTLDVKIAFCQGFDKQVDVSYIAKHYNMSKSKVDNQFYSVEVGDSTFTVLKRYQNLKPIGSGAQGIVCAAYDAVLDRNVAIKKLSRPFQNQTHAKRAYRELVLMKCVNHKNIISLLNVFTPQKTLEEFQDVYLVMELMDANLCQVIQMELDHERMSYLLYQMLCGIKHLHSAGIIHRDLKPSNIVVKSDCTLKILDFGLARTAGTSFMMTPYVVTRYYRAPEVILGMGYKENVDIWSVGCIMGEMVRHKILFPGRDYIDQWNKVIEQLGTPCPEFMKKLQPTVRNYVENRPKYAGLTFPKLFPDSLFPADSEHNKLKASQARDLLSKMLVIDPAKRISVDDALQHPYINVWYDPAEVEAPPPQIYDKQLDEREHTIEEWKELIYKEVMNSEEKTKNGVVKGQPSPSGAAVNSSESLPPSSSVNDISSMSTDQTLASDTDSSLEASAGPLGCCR

Take `CC(C)N1C(=O)C(NCCCN(C)C)=C(c2cn(C)c3ccccc23)C1=O.Cl`: the Activity in assay [1] worked out at 98%; in assay [2], 94%; in assay [3], 92%; in assay [4] it was 75%; in assay [5], 100%; in [6], 98%. Moreover, the Activity in [7] amounted to 84%; in [8], 93%; in assay [9] it was 83%; in assay [10] it was 82%; in [11], 85%; in assay [12], 85%. For the same compound, the Activity in assay [13] was 100%; in assay [14] it was 94%; in assay [15], 88%; in assay [16], 90%; in assay [17] it was 85%; in assay [18], 96%. The Activity in [19] was determined as 83%; in assay [20], 94%; in assay [21] it was 91%; in [22] it was 88%; in [23] it was 93%; in assay [24], 99%.
